According to patent US12055549B2, “Methods of use of anti-TNFα antibodies” (UCB Biopharma SRL, priority 2015, dated 2024):

Biological target: TNFα (Homo sapiens, UniProt P01375)
Test: SPR on Biacore 4000, immobilised soluble TNFα
Format: binding
Conditions: concentration of up to 100 μM
Protocol: In another experiment, BIO8898 was tested against the immobilised soluble form of CD40L and the soluble form of TNFα by SPR on a Biacore 4000 machine.

TNFα, sequence (P01375 77-233 limits assumed): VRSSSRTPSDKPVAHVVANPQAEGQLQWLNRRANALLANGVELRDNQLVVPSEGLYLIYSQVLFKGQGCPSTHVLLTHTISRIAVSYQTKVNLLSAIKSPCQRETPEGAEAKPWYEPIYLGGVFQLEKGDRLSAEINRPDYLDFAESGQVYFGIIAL

O=C(NCc1cccc(-c2ccccc2)c1)c1cc(-c2cc(C(=O)NC(C(=O)O)C3CCCCC3)nc(C(=O)N3CCCC3CN3CCCC3)c2)cc(C(=O)N2CCCC2CN2CCCC2)n1 (stereo not shown) [BIO8898]
binding to TNFα: found not to bind to TNFα
